According to patent publication US10508077B2 (FORMA Therapeutics, Inc., priority 2015, dated 2019):

target: T1, Full length human recombinant HDAC8 protein (Homo sapiens, UniProt Q9BY41); experiment: In vitro histone deacetylase assay: enzymatic HDAC8 assay, electrophoretic mobility shift; format: biochemical; conditions: substrate RHKK(Ac)-NH2, 1 nM enzyme, compounds listed under IC50 range headings
T1 construct: Full length human recombinant HDAC8 protein was expressed in baculoviral system; made in house
T1 sequence (Q9BY41 1-377): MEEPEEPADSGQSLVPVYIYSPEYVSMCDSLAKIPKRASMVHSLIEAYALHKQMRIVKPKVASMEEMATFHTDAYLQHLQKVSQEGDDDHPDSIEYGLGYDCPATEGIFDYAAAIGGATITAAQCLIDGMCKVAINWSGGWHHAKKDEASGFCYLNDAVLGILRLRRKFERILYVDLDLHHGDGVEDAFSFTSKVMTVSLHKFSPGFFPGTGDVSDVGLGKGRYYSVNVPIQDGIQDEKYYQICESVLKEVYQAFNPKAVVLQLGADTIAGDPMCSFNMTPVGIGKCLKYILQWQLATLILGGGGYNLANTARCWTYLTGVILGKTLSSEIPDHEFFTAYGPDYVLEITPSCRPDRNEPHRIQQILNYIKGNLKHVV
Summary of the method: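 Readout was microfluidic mobility-shift separation of deacetylated product from fluorescent RHKK(Ac)-NH2 substrate (2 µM), after reaction with 1 nM recombinant full-length human HDAC8 at 25 °C, pH 7.5, stopped with SDS. Twelve 3-fold-spaced concentrations tested; product/sum ratios normalized to controls and fitted with a 4-parameter model for IC50.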

IC50, < 1000 nM:
O=C(/C=C/c1ccccc1N1CCC(NC(=O)C2CC(F)(F)C2)CC1)NO [Example I-149, (E)-3,3-difluoro-N-(1-(2-(3-(hydroxyamino)-3-oxoprop-1-en-1-yl)phenyl)piperidin-4-yl)cyclobutane-1-carboxamide]
O=C(/C=C/c1ccccc1N1CCC(NC(=O)CC2CC2)CC1)NO [Example I-150]
O=C(/C=C/c1ccccc1N1CCC(NC(=O)CC2CCS(=O)(=O)CC2)CC1)NO [Example I-151, (E)-3-(2-(4-(2-(1,1-dioxidotetrahydro-2H-thiopyran-4-yl)acetamido)piperidin-1-yl)phenyl)-N-hydroxyacrylamide]
O=C(/C=C/c1ccccc1N1CCC(NC(=O)CSc2ccccc2)CC1)NO [Example I-152, (E)-N-hydroxy-3-(2-(4-(2-(phenylthio)acetamido)piperidin-1-yl)phenyl)acrylamide]
CC(C)c1ccc(C(=O)NC2CCN(c3ccccc3/C=C/C(=O)NO)CC2)nc1 [Example I-154, (E)-N-(1-(2-(3-(hydroxyamino)-3-oxoprop-1-en-1-yl)phenyl)piperidin-4-yl)-5-isopropylpicolinamide]
O=C(/C=C/c1ccccc1N1CCC(NC(=O)c2cc3ccccc3[nH]2)CC1)NO [Example I-155]
CSc1ccc(CC(=O)NC2CCN(c3ccccc3/C=C/C(=O)NO)CC2)cc1 [Example I-156]
CC(C)CCC(=O)NC1CCN(c2ccccc2/C=C/C(=O)NO)CC1 [Example I-157, (E)-N-(1-(2-(3-(hydroxyamino)-3-oxoprop-1-en-1-yl)phenyl)piperidin-4-yl)-4-methylpentanamide]
Cc1nc(CC(=O)NC2CCN(c3ccccc3/C=C/C(=O)NO)CC2)c(C)s1 [Example I-158, (E)-3-(2-(4-(2-(2,5-dimethylthiazol-4-yl)acetamido)piperidin-1-yl)phenyl)-N-hydroxyacrylamide]
O=C(/C=C/c1ccccc1N1CCC(NC(=O)c2ccoc2)CC1)NO [Example I-159]
O=C(/C=C/c1ccccc1N1CCC(NC(=O)c2ccc(-n3cccc3)nc2)CC1)NO [Example I-160]
O=C(/C=C/c1ccccc1N1CCC(NC(=O)c2ccc3[nH]nnc3c2)CC1)NO [Example I-161]
CN(C)Cc1ccccc1CN1CCN(c2ccccc2/C=C/C(=O)NO)CC1 [Example I-162, (E)-3-(2-(4-(2-((dimethylamino)methyl)benzyl)piperazin-1-yl)phenyl)-N-hydroxyacrylamide]
O=C(/C=C/c1ccccc1N1CCN(Cc2ccc(F)cc2)CC1)NO [Example I-163, (E)-3-(2-(4-(4-fluorobenzyl)piperazin-1-yl)phenyl)-N-hydroxyacrylamide]
O=C(/C=C/c1ccccc1N1CCN(Cc2ccccc2F)CC1)NO [Example I-164, (E)-3-(2-(4-(2-fluorobenzyl)piperazin-1-yl)phenyl)-N-hydroxyacrylamide]
O=C(/C=C/c1ccccc1N1CCN(Cc2ccc(C(F)(F)F)nc2)CC1)NO [Example I-165, (E)-N-hydroxy-3-(2-(4-((6-(trifluoromethyl)pyridin-3-yl)methyl)piperazin-1-yl)phenyl)acrylamide]
O=C(/C=C/c1ccccc1N1CCN(CCCc2ccccc2)CC1)NO [Example I-166, (E)-N-hydroxy-3-(2-(4-(3-phenylpropyl)piperazin-1-yl)phenyl)acrylamide]
O=C(/C=C/c1ccccc1N1CCN(CC2CCOC2)CC1)NO (centres unmarked) [Example I-167, (E)-N-hydroxy-3-(2-(4-((tetrahydrofuran-3-yl)methyl)piperazin-1-yl)phenyl)acrylamide]
O=C(/C=C/c1ccccc1N1CCN(Cc2ccccn2)CC1)NO [Example I-168, (E)-N-hydroxy-3-(2-(4-(pyridin-2-ylmethyl)piperazin-1-yl)phenyl)acrylamide]
COc1cncc(CN2CCN(c3ccccc3/C=C/C(=O)NO)CC2)c1 [Example I-169, (E)-N-hydroxy-3-(2-(4-((5-methoxypyridin-3-yl)methyl)piperazin-1-yl)phenyl)acrylamide]
O=C(/C=C/c1ccccc1N1CCN(Cc2cccc(C(F)(F)F)c2)CC1)NO [Example I-171, (E)-N-hydroxy-3-(2-(4-(3-(trifluoromethyl)benzyl)piperazin-1-yl)phenyl)acrylamide]
COc1ccc(CN2CCN(c3ccccc3/C=C/C(=O)NO)CC2)cc1 [Example I-172, (E)-N-hydroxy-3-(2-(4-(4-methoxybenzyl)piperazin-1-yl)phenyl)acrylamide]
O=C(/C=C/c1ccccc1N1CCN(Cc2ccc3c(c2)OC(F)(F)O3)CC1)NO [Example I-173, (E)-3-(2-(4-((2,2-difluorobenzo[d][1,3]dioxol-5-yl)methyl)piperazin-1-yl)phenyl)-N-hydroxyacrylamide]
O=C(/C=C/c1ccccc1N1CCN(Cc2ccccc2C(F)(F)F)CC1)NO [Example I-174, (E)-N-hydroxy-3-(2-(4-(2-(trifluoromethyl)benzyl)piperazin-1-yl)phenyl)acrylamide]
O=C(/C=C/c1ccccc1N1CCN(Cc2cc3c(cc2Cl)OCO3)CC1)NO [Example I-175, (E)-3-(2-(4-((6-chlorobenzo[d][1,3]dioxol-5-yl)methyl)piperazin-1-yl)phenyl)-N-hydroxyacrylamide]
O=C(/C=C/c1ccccc1N1CCN(Cc2ccccc2OC(F)F)CC1)NO [Example I-176, (E)-3-(2-(4-(2-(difluoromethoxy)benzyl)piperazin-1-yl)phenyl)-N-hydroxyacrylamide]
CCCCN1CCN(c2ccccc2/C=C/C(=O)NO)CC1 [Example I-177, (E)-3-(2-(4-butylpiperazin-1-yl)phenyl)-N-hydroxyacrylamide]
CCCCCCN1CCN(c2ccccc2/C=C/C(=O)NO)CC1 [Example I-178, (E)-3-(2-(4-hexylpiperazin-1-yl)phenyl)-N-hydroxyacrylamide]
Cn1ccnc1CN1CCN(c2ccccc2/C=C/C(=O)NO)CC1 [Example I-181, (E)-N-hydroxy-3-(2-(4-((1-methyl-1H-imidazol-2-yl)methyl)piperazin-1-yl)phenyl)acrylamide]
O=C(/C=C/c1ccccc1N1CCN(CCCC(F)(F)F)CC1)NO [Example I-184, (E)-N-hydroxy-3-(2-(4-(4,4,4-trifluorobutyl)piperazin-1-yl)phenyl)acrylamide]
Cc1csc(CN2CCN(c3ccccc3/C=C/C(=O)NO)CC2)n1 [Example I-185, (E)-N-hydroxy-3-(2-(4-((4-methylthiazol-2-yl)methyl)piperazin-1-yl)phenyl)acrylamide]
CN(C)CC1(CN2CCN(c3ccccc3/C=C/C(=O)NO)CC2)CCCC1 [Example I-186, (E)-3-(2-(4-((1-((dimethylamino)methyl)cyclopentyl)methyl)piperazin-1-yl)phenyl)-N-hydroxyacrylamide]
CN1CCC(C)(CN2CCN(c3ccccc3/C=C/C(=O)NO)CC2)CC1 [Example I-187, (E)-3-(2-(4-((1,4-dimethylpiperidin-4-yl)methyl)piperazin-1-yl)phenyl)-N-hydroxyacrylamide]
O=C(/C=C/c1ccccc1N1CCN(Cc2cn3ccccc3n2)CC1)NO [Example I-188, (E)-N-hydroxy-3-(2-(4-(imidazo[1,2-a]pyridin-2-ylmethyl)piperazin-1-yl)phenyl)acrylamide]
O=C(/C=C/c1ccccc1N1CCN(Cc2nc3ccccc3s2)CC1)NO [Example I-189, (E)-3-(2-(4-(benzo[d]thiazol-2-ylmethyl)piperazin-1-yl)phenyl)-N-hydroxyacrylamide]
O=C(/C=C/c1ccccc1N1CCC(NCc2nccs2)CC1)NO [Example I-190, (E)-N-hydroxy-3-(2-(4-((thiazol-2-ylmethyl)amino)piperidin-1-yl)phenyl)acrylamide]
O=C(/C=C/c1ccccc1N1CCC(NCc2ccccc2OC(F)F)CC1)NO [Example I-191, (E)-3-(2-(4-((2-(difluoromethoxy)benzyl)amino)piperidin-1-yl)phenyl)-N-hydroxyacrylamide]
O=C(/C=C/c1ccccc1N1CCC(NCc2nc3ccccc3s2)CC1)NO [Example I-192, (E)-3-(2-(4-((benzo[d]thiazol-2-ylmethyl)amino)piperidin-1-yl)phenyl)-N-hydroxyacrylamide]
CC(=O)N1CCN(c2ccccc2/C=C/C(=O)NO)CC1 [Example I-193, (E)-3-(2-(4-actylpiperazin-1-yl)phenyl)-N-hydroxyacrylamide]
CSCC(=O)N1CCN(c2ccccc2/C=C/C(=O)NO)CC1 [Example I-194, (E)-N-hydroxy-3-(2-(4-(2-(methylthio)acetyl)piper-azin-1-yl)phenyl)acrylamide]
COc1ccc(CC(=O)N2CCN(c3ccccc3/C=C/C(=O)NO)CC2)cc1 [Example I-195, (E)-N-hydroxy-3-(2-(4-(2-(4-methoxyphenyl)acetyl)pi-perazin-1-yl)phenyl)acrylamide]
